What was measured:
Format in all cases: cell-based, human
Golgi of HeLa cells [1] = assay: BFA-induced Golgi disassembly in cells prelabeled with 2; settings: HeLa cells prelabeled with 2 (10 nM, 30 min), BFA 10 μM
Golgi of HeLa cells [2] = assay: CLSM Golgi labeling at ultralow concentrations; settings: 4 hours
Golgi of HeLa cells [3] = assay: Time-lapse CLSM of Golgi fluorescence build-up; settings: over 24 minutes
Golgi of HeLa cells [4] = assay: FRAP assay at the Golgi; settings: 500 nM, after 30-minute treatment
Golgi of HeLa cells [5] = assay: FRET co-assembly of 2 with quencher 7, Golgi fluorescence over 24 minutes; settings: 2 (10 nM) with 7 (5, 10, 20 nM) or UBQ2-COOH (10, 20 nM)

## C[C@H]1CCC/C=C/[C@@H]2C[C@H](O)C[C@H]2[C@H](O)/C=C/C(=O)O1 [BFA, brefeldin A]
Golgi of HeLa cells [1]
  time at which the Golgi begins to lose its defined morphology: 5.5 minutes
  time at which the Golgi collapses into the ER: 6.5 min

## CCCCCCCCCCCCC/C=C/[C@@H](O)[C@H](CO)NC(=O)CCCCC1=[N+]2C(=Cc3c(C)cc(C)n3[B-]2(F)F)C=C1 [BODIPY-C5-Ceramide]
Golgi of HeLa cells [2]; 10 nM
  Golgi fluorescence at 10 nM: very dim fluorescence at the Golgi
Golgi of HeLa cells [2]; picomolar concentrations (500 pM)
  Golgi localization at picomolar concentrations: no detectable Golgi localization
Golgi of HeLa cells [3]
  Golgi fluorescence in time-lapse imaging at 10 nM: no significant Golgi fluorescence
Golgi of HeLa cells [4]
  immobile fraction (IMf) at the Golgi: 0.52

## COc1cc(N=Nc2ccc([N+](=O)[O-])cc2)c(OC)cc1N=Nc1ccc(N(C)CCCC(=O)O)cc1 [UBQ2]
Golgi of HeLa cells [5]
  effect on Golgi fluorescence of 2 on co-treatment: did not diminish Golgi fluorescence
